Values quoted from earlier work as cited in patent publication US20240423897A1, “LONGEVITY SERUM” (Wellbeam Consumer Health Intermediate, LLC, priority 2023, published 2024).

Test system: skin
Settings: topical application

C=C[C@@](C)(/C=C/c1ccc(O)cc1)CCC=C(C)C [bakuchiol]
effect on lines and wrinkles, pigmentation, elasticity, firmness, and photo-damage: significant improvement
irritating effect on the skin: no irritating effect
